Measured values reported in patent US11766429B1, “Nicotinic receptor antagonists and pioglitazone as therapeutic agents for Covid-19” (priority 2020, dated 2023).

What was measured:
[1] = test system: human α3β4, α4β2, α3β2 and α7 receptors; conditions: cited from earlier work; for mode of inhibition: neuronal nAChRs; for selectivity between nAChR types: neuronal vs muscle-type nAChRs
[2] = in vivo; cited from earlier work
[3] = test system: inflammatory cytokine gene expression (IL1-β, IL-6, TNF-α); assay: Inflammatory cytokine gene expression in MHV4 infected IMG cells; format: cell-based; conditions: 2 MOI MHV4, mecamylamine 1, 10 or 40 μM, 48 hours
[4] = test system: inflammatory cytokines IL-6, IL-1β, and TNFα; assay: SARS-CoV-2 induced cytokine gene expression in Calu3 cells; format: cell-based; conditions: 0.1 MOI SARS CoV2, single agent: PG 20 μM, Mec 5 μM or Mec iso 5 μM, 48 hrs
[5] = higher doses (30-90 mg/day); cited from earlier work
[6] = test system: mouse hepatitis virus strain 4 (MHV4); assay: MHV4 replication in infected IMG cells (GFP expression, N gene qPCR); format: cell-based; conditions: 2 MOI MHV4, mecamylamine 1, 10 or 40 μM, 48 hours

Structure (SMILES) | mode of inhibition [1] | selectivity between nAChR types [1] | blood brain barrier penetration [2] | cytokine gene transcription (qPCR) [3] | inflammatory cytokines IL-6, IL-1β, and TNFα [4] | side effects [5] | GFP expressing cells [6] | MHV-4 N-gene expression [6]
CNC1(C)C2CCC(C2)C1(C)C (stereo not drawn) [R-(−)-mecamylamine] | noncompetitive inhibitors | selective for neuronal nAChRs over muscle-type nAChRs | – | – | – | – | – | –
CNC1(C)C2CCC(C2)C1(C)C (racemic) [mecamylamine] | – | selective for neuronal nAChRs over muscle-type nAChRs | ability to cross the blood brain barrier | dose-dependent decrease | significant decrease | causes unfavorable side effects | dose-dependent decrease | dose-dependent decrease
CN[C@@]1(C)[C@@H]2CC[C@@H](C2)C1(C)C [S-(+)-mecamylamine] | noncompetitive inhibitors | selective for neuronal nAChRs over muscle-type nAChRs | – | – | – | – | – | –
